Reference: publication PMC10655391, “Inhibition of Hsp110-STAT3 interaction in endothelial cells alleviates vascular remodeling in hypoxic pulmonary arterial Hypertension model” (Respiratory Research, 2023)

Molecular target: T1, Hsp110 (Homo sapiens, UniProt Q92598)
T1 construct: gene HSPH1; purified recombinant human Hsp110 (His6-SUMO tag cleaved)
Assay: luciferase anti-aggregation assay with purified Hsp110 at […] (single concentration)
Format: biochemical
Conditions: read-out: % reduction of anti-aggregating activity at 100 μM

T1 sequence (Q92598 whole entry): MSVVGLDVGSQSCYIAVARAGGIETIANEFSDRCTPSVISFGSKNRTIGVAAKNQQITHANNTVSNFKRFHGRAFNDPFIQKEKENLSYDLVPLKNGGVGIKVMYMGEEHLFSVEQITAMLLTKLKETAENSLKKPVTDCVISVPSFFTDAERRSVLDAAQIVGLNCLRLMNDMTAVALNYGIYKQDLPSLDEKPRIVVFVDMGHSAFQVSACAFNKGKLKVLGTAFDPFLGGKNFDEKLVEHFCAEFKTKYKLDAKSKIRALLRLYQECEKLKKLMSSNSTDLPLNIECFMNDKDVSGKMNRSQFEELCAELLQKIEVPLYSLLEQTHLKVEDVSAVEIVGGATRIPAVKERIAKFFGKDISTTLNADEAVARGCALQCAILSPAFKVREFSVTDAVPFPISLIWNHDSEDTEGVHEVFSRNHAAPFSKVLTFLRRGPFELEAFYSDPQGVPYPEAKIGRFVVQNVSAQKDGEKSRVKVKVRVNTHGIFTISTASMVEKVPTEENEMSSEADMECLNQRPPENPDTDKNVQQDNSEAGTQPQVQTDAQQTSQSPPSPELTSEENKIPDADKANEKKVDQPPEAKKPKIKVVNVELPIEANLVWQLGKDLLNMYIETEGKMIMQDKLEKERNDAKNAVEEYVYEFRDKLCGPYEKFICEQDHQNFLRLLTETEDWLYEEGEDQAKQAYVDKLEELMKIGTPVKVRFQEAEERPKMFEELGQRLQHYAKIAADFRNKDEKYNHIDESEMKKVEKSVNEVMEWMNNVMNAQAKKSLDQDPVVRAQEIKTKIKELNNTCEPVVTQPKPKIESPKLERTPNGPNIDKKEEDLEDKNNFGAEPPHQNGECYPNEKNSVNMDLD

inhibition at 100 µM [%]	SMILES
> 50	Cc1ccccc1COc1nc2c(cc1-c1nc(N)cc(N)n1)c(C)nn2-c1ccccc1 [compound 5]
> 50	Cc1nn(-c2ccccc2)c2nc(OCc3cnc(Cl)s3)c(-c3nc(N)cc(N)n3)cc12 [compound 8]
